Measured values from patent US8473035B2, “Medical imaging systems” (Beth Israel Deaconess Medical Center, priority 2003, dated 2013).

Legend:
[1] = system: mitochondria and/or endoplasmic reticulum; test: partitioning of the dye into subcellular organelles; type: cell-based
Excerpt: (§1) More generally, IR-786 may be used for non-radioactive imaging of areas of ischemia in the living heart, or other visualization of the viability of other tissues.

[2] = system: blood flow in the heart; test: imaging of blood flow in the heart of a living laboratory rat after a thoracotomy; type: in vivo
Excerpt: as §1

[3] = in vivo early half-life of the dye; conditions: small molecule form
Excerpt: This permits multiple injections during a single procedure.

[4] = solubility of the dye in blood

| Structure (SMILES) | partitioning into mitochondria and/or endoplasmic reticulum [1] | imaging of blood flow in the heart [2] | in vivo early half-life [3] | solubility in blood [4] |
| --- | --- | --- | --- | --- |
| CN1C(=CC=C2CCCC(C=CC3=[N+](C)c4ccccc4C3(C)C)=C2Cl)C(C)(C)c2ccccc21.[O-][Cl+3]([O-])([O-])[O-] [IR-786] | partitions efficiently into mitochondria and/or endoplasmic reticulum in a concentration-dependent manner | successfully applied |  |  |
| CC1(C)C(/C=C/C=C/C=C/C=C2\N(CCCCS(=O)(=O)O)c3ccc4ccccc4c3C2(C)C)=[N+](CCCCS(=O)(=O)[O-])c2ccc3ccccc3c21 [Indocyanine green, indocyanine green] |  |  | shorter half-life | somewhat less soluble in blood |
